Data published in patent US9834542B2, “LXR modulators” (BRISTOL-MYERS SQUIBB COMPANY, priority 2013, dated 2017).

Target: T1, LXRβ (Homo sapiens, UniProt P55055)
T1 construct: Co-transfection expression plasmids, comprising full-length LXRα (pCMX-h LXRα[…] or LXRβ (pCMX-hLXRβ)); expressed in transfected cells; host or cells: CV-1 African Green Monkey Kidney Cells
T1 sequence (P55055 1-460): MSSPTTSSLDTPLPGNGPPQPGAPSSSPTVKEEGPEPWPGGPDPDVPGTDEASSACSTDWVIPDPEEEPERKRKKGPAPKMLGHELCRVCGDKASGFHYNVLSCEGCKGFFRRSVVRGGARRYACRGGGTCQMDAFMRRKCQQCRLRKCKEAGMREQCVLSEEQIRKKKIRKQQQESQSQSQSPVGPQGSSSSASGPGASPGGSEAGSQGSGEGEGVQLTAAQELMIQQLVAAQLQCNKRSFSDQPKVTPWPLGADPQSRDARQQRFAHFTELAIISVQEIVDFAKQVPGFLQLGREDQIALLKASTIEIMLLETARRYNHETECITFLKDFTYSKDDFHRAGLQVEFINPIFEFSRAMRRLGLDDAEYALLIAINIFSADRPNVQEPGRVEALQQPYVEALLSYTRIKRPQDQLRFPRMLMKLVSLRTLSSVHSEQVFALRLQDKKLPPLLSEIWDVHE
T1 sequence (P19793 1-462 partner): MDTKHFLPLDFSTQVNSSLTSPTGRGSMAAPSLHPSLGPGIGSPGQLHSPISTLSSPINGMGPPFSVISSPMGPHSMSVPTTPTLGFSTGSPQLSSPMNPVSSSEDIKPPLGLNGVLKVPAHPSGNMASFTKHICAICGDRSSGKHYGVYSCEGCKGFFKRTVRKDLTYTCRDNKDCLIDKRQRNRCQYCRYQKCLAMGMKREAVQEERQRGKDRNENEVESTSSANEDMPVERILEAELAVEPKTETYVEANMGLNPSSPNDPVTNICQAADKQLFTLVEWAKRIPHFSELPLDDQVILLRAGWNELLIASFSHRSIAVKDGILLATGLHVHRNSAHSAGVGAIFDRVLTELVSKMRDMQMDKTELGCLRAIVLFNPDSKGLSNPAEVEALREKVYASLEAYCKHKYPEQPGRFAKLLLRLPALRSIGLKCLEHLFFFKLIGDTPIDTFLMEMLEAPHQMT
Test: Co-transfection assay (LXRE luciferase reporter), LXRβ
Assay type: cell-based
Conditions: for EC50: CV-1 cells transfected with pCMX-hLXRβ and LXREx1-Tk-Luciferase, 20 hours incubation; for Emax: LXRβ co-transfection, relative to high control 1-(2,4-difluorobenzyl)-2-oxo-6-(4-phenoxyphenyl)-4-(trifluoromethyl)-1,2-dihydropyridine-3-carbonitrile, read-out: % Efficacy
Outline: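 CV-1 cells transiently co-transfected with full-length human LXRβ expression plasmid, LXREx1-Tk-luciferase reporter and β-galactosidase control, then exposed to compound for 20 h at 37 °C. Luciferase luminescence read; EC50 from 11-point, ½-log dose–response fit, efficacy relative to high-control agonist maximum.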

| EC50 [µM] | Emax [%] | SMILES |
| --- | --- | --- |
| 0.836 | 51 | Cc1nc(-c2cc(-c3cccc(C4(C(N)=O)CC4)c3)ccc2-n2cc(C(F)(F)F)nc2C)c(-c2ccc3c(c2)OC(F)(F)O3)o1 [Example 446, 1-(3′-(5-(2,2-difluorobenzo[d][1,3]dioxol-5-yl)-methyloxazol-4-yl)-4′-(2-methyl-4-(trifluoromethyl)-1H-imidazol-1-yl)biphenyl-3-yl)cyclopropanecarboxamide] |
| 0.229 | 58 | Cc1nc(C(F)(F)F)cn1-c1ccc(-c2ccc(CO)c(S(C)(=O)=O)c2)cc1-c1ocnc1Cc1ccc(Cl)cc1 [Example 635, (3′-(4-(4-chlorobenzyl)oxazol-5-yl)-4′-(2-methyl-4-(trifluoromethyl)-1H-imidazol-1-yl)-3-(methylsulfonyl)-[1,1′-biphenyl]-4-yl)methanol] |
| 0.447 | 42 | Cc1nc(Cl)cn1-c1ccc(-c2cc(F)c(CO)c(S(C)(=O)=O)c2)cc1-n1nncc1-c1ccc(Cl)cc1 [Example 148, [4′-(4-chloro-2-methyl-1H-imidazol-1-yl)-3′-[5-(4-chlorophenyl)-1H-1,2,3-triazol-1-yl]-3-fluoro-5-(methylsulfonyl)biphenyl-4-yl]methanol] |
| 0.03 | 76 | Cc1nc(-c2cc(-c3cccc(S(=O)(=O)C4CC4)c3)ccc2-n2cc(C(F)(F)F)nc2C)c(-c2ccc3c(c2)OC(F)(F)O3)o1 [Example 416] |
| 0.408 | 37 | Cc1nc(C(F)(F)F)cn1-c1ccc(-c2cccc(S(C)(=O)=O)c2)cc1-c1nc(C(F)(F)F)cn1-c1ccc(Cl)cc1 [Example 644, 1-(4-chlorophenyl)-2-(4-(2-methyl-4-(trifluoromethyl)-1H-imidazol-1-yl)-3′-(methylsulfonyl)biphenyl-3-yl)-4-(trifluoromethyl)-1H-imidazole] |
| 0.334 | 86 | CCS(=O)(=O)c1cccc(-c2ccc(-n3cc(C(F)(F)F)nc3C)c(-n3nncc3-c3ccc(OC(F)(F)F)cc3)c2)c1 [Example 215, 1-(3′-(ethylsulfonyl)-4-(2-methyl-4-(trifluoromethyl)-1H-imidazol-1-yl)-[1,1-biphenyl]-3-yl)-5-(4-(trifluoromethoxy)phenyl)-1H-1,2,3-triazole] |
| 0.066 | 75 | Cc1ccc(C(C)c2cnnn2-c2cc(-c3cc(F)c(CO)c(S(C)(=O)=O)c3)ccc2-n2cc(C(F)(F)F)nc2C)cc1 (stereo not drawn) [Example 9, (3-fluoro-3′-{5-[1-(4-methylphenyl)ethyl]-1H-1,2,3-triazol-1-yl}-5-(methylsulfonyl)-4′-[2-methyl-4-(trifluoromethyl)-1H-imidazol-1-yl]biphenyl-4-yl)methanol] |
| 0.032 | 55 | Cc1nc(-c2cc(-c3cc(F)c(CO)c(S(C)(=O)=O)c3)ccc2-n2cc(C(F)(F)F)nc2C)c(-c2ccc(Cl)cc2F)o1 [Example 485, (3′-(5-(4-chloro-2-fluorophenyl)-2-methyloxazol-4-yl)-3-fluoro-4′-(2-methyl-4-(trifluoromethyl)-1H-imidazol-1-yl)-5-(methylsulfonyl)biphenyl-4-yl)methanol] |
| 0.661 | 94 | Cc1nc(C(F)(F)F)cn1-c1ccc(-c2cccc(S(C)(=O)=O)c2)cc1-n1nncc1-c1ccc(F)c(F)c1 [Example 34, 5-(3,4-difluorophenyl)-1-{3′-(methylsulfonyl)-4-[2-methyl-4-(trifluoromethyl)-1H-imidazol-1-yl]biphenyl-3-yl}-1H-1,2,3-triazole] |
| 0.227 | 71 | Cc1nc(C(F)(F)F)cn1-c1ccc(-c2cc(Cl)c(CO)c(S(C)(=O)=O)c2)cc1-n1nncc1-c1ccc(Cl)c(Cl)c1 [Example 79, {3-chloro-3′-[5-(3,4-dichlorophenyl)-1H-1,2,3-triazol-1-yl]-5-(methylsulfonyl)-4′-[2-methyl-4-(trifluoromethyl)-1H-imidazol-1-yl]biphenyl-4-yl}methanol] |
| 0.076 | 77 | Cc1nc(-c2cc(-c3cccc(S(C)(=O)=O)c3)ccc2-n2cc(C(F)(F)F)nc2C)c(-c2ccc3ccccc3c2)o1 [Example 436, 2-methyl-4-(4-(2-methyl-4-(trifluoromethyl)-1H-imidazol-1-yl)-3′-(methylsulfonyl)biphenyl-3-yl)-5-(naphthalen-2-yl)oxazole] |
| 0.065 | 70 | Cc1nc(C(F)(F)F)cn1-c1ccc(-c2cc(F)c(CO)c(S(C)(=O)=O)c2)cc1-c1ccnn1-c1ccc(OC(F)(F)F)cc1 [Example 292, [3-fluoro-5-(methylsulfonyl)-4′-[2-methyl-4-(trifluoromethyl)-1H-imidazol-1-yl]-3′-(1-{4-[(trifluoromethyl)oxy]phenyl}-1H-pyrazol-5-yl)biphenyl-4-yl]methanol] |
| 1.25 | 37 | Cc1nc(-c2cc(-c3cccc(S(C)(=O)=O)c3)ccc2-n2cc(C(F)(F)F)nc2C)c(-c2ccc(N3CCCC3=O)cc2)o1 [Example 502, 1-(4-(2-methyl-4-(4-(2-methyl-4-(trifluoromethyl)-1H-imidazol-1-yl)-3′-(methylsulfonyl)biphenyl-3-yl)oxazol-5-yl)phenyl)pyrrolidin-2-one] |
| 0.052 | 79 | Cc1nc(-c2ccc(Cl)cc2)c(-c2cc(-c3cc(F)c(CO)c(S(C)(=O)=O)c3)ccc2-n2cc(C(F)(F)F)nc2C)o1 [Example 606, (3′-(4-(4-chlorophenyl)-2-methyloxazol-5-yl)-3-fluoro-4′-(2-methyl-4-(trifluoromethyl)-1H-imidazol-1-yl)-5-(methylsulfonyl)-[1,1′-biphenyl]-4-yl)methanol] |
| 0.143 | 63 | Cc1nc(-c2cc(-c3cc(F)c(CO)c(S(C)(=O)=O)c3)ccc2-n2cc(C(F)(F)F)nc2C)c(-c2cccc(Cl)n2)o1 [Example 427, (3′-(5-(6-chloropyridin-2-yl)-2-methyloxazol-4-yl)-3-fluoro-4′-(2-methyl-4-(trifluoromethyl)-1H-imidazol-1-yl)-5-(methylsulfonyl)biphenyl-4-yl)methanol] |
| 0.204 | 49 | Cc1nc(-c2cc(-c3cccc(S(C)(=O)=O)c3)ccc2-n2cc(C(F)(F)F)nc2C)c(-c2ccc(OC3CCCC3)nc2)o1 [Example 410, 5-(6-(cyclopentyloxy)pyridin-3-yl)-2-methyl-4-(4-(2-methyl-4-(trifluoromethyl)-1H-imidazol-1-yl)-3′-(methylsulfonyl)biphenyl-3-yl)oxazole] |
| 0.181 | 68 | Cc1nc(-c2cc(-c3cccc(S(C)(=O)=O)c3)ccc2-n2cc(C(F)(F)F)nc2C)c(-c2ccc(OC(CF)CF)c(F)c2)o1 [Example 406, 5-(4-(1,3-difluoropropan-2-yloxy)-3-fluorophenyl)-2-methyl-4-(4-(2-methyl-4-(trifluoromethyl)-1H-imidazol-1-yl)-3′-(methylsulfonyl)biphenyl-3-yl)oxazole] |
| 0.518 | 72 | COc1cnc(-c2oc(C)nc2-c2cc(-c3cccc(S(C)(=O)=O)c3)ccc2-n2cc(C(F)(F)F)nc2C)cn1 [Example 412, 5-(5-methoxypyrazin-2-yl)-2-methyl-4-(4-(2-methyl-4-(trifluoromethyl)-1H-imidazol-1-yl)-3′-(methylsulfonyl)biphenyl-3-yl)oxazole] |
